Reference: patent US20090270497A1, “Treatment of Non-Localized Inflammation with pan-HDAC Inhibitors” (PHARMACYCLICS, INC., priority 2008, published 2009)

Experiments:
[1] = tested on: Class I and Class II HDAC isoforms; test: HDAC isoform inhibition (all Class I and Class II); format: biochemical
[2] = tested on: RAW cells; test: Cytokine mRNA expression by RT-PCR in LPS-treated RAW cells; format: cell-based; settings: 0.1 μM for 30 min, then 100 ng/ml LPS 6 hours
Procedure: RT-PCR was performed (30 cycles), and PCR products were analyzed on a 1% agarose gel. […] (FIG. 1)

[3] = tested on: RAW cells; test: Secreted cytokine protein by ELISA in LPS-treated RAW cells; format: cell-based; settings: 0.1 μM for 30 min, LPS 100 ng/ml for 16 hr
Source text: Culture media was collected and analyzed by ELISA for TNFα, IL-1β and IL-6 proteins (n=3±S.D.). […] (FIG. 2).

[4] = tested on: inducible nitric oxide synthase (iNOS); test: iNOS expression by Western blot in LPS-treated RAW cells; format: cell-based; settings: various amounts for 30 min, LPS 100 ng/ml 16 hours
Procedure: Cell lysates were analyzed by Western blot with antibodies to the inducible nitric oxide synthase (iNOS) (above) and HuR (below) as a negative control. […] (FIG. 3).

[5] = tested on: sepsis by treatment with LPS; test: Survival after induction of sepsis by LPS (endotoxemia); format: in vivo
Procedure: At 72 hours after induction of sepsis by treatment with LPS, a subject has a 0% chance of survival. […] This remains constant through 144 hours.
Culture media was collected and analyzed by ELISA for TNFα, IL-1β and IL-6 proteins (n=3±S.D.). […] (FIG. 4).

CN(C)Cc1c(C(=O)NCCOc2ccc(C(=O)NO)cc2)oc2ccccc12 [Compound 1]
inhibition of all Class I and Class II HDAC isoforms [1]: inhibits all Class I and Class II HDAC isoforms | RNA level of IL-1β [2]: decreased | RNA level of IL-6 [2]: decreased | RNA level of TNF [2]: decreased | IL-1β protein in culture media [3]: decreases | IL-6 protein in culture media [3]: decreases | TNFα protein in culture media [3]: decreases | iNOS expression [4]: decreases in a dose-dependant manner | chances of survival ([5]; 25 μg/gram of body weight, at 72 hours after LPS, steady through 144 hours): 30% | chances of survival ([5]; 50 μg/gram of body weight, constant through 144 hours after LPS): 70% | increase of survival from endotoxemia ([5]; FIG. 4 legend, dose not stated): 70%
